Measurements from patent publication US20220168427A1 (Ranok Therapeutics (Hangzhou) Co. Ltd., priority 2019, published 2022).

Key:
BRD4 (BD1+BD2) = target: T1, BRD4 (BD1+BD2) (Homo sapiens, UniProt O60885); conditions: read-out: BRD4 Binding Potency
T1 construct: 1.8 μg/ml recombinant BRD4 (BD1+BD2 domains) protein

HSP90α = HSP90α (Homo sapiens, UniProt P07900); test: HSP90α Binding Fluorescent Polarization (FP) Assay; conditions: competition with FITC-geldanamycin; read-out: HSP90 Binding Potency
Method in brief: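 Duplicate wells held BSA buffer, FITC-geldanamycin tracer, compound (3-fold dilution plate spanning 40 μM–2.0 nM) and recombinant protein diluted to 28 μg/ml before addition. Polarization read at 30, 60 and 120 min, 25 °C. Background-corrected mP values gave IC50 through a four-parameter inhibitor-response fit.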

MV4-11 cells = test: MV4-11 Cell Cytotoxicity Assay; type: cell-based, human; conditions: CCK-8; for IC50 at 72 h: human, MV4-11 cells
Description: % Inhibition=100−(D−B)/(S−B)*100%.
S: The absorbance of the maximum (cells with DMSO)
B: The absorbance of the minimum (medium with DMSO)

Row | Compound | IC50 (BRD4 (BD1+BD2)) [nM] | IC50 (HSP90α) [nM] | IC50 at 72 h (MV4-11 cells) [nM] | IC50 (MV4-11 cells; 72 hr) [nM]
1 | COc1cccc(-c2cc(C(=O)Nc3ccc(-c4ccc(OC5CCN(C(=O)CNC(=O)C[C@@H]6N=C(c7ccc(Cl)cc7)c7c(sc(C)c7C)-n7c(C)nnc76)CC5)cc4OCCN(C)C)cc3)ccc2OC)c1 [Compound 138] | < 100 | > 1000 | < 100 | 
2 | Cc1sc2c(c1C)C(c1ccc(Cl)cc1)=N[C@@H](CC(=O)N1CCC(CN3CCN(Cc4ccc(-n5c(O)nnc5-c5cc(C(C)C)c(O)cc5O)cc4F)CC3)CC1)c1nnc(C)n1-2 [Compound 17, (S)-2-(4-(4-chlorophenyl)-2,3,9-trimethyl-6H-thieno[3,2-f][1,2,4]triazolo[4,3-a][1,4]diazepin-6-yl)-1-(4-((4-(4-(3-(2,4-dihydroxy-5-isopropylphenyl)-5-hydroxy-4H-1,2,4-triazol-4-yl)-2-fluorobenzyl)piperazin-1-yl)methyl)piperidin-1-yl)ethan-1-one, trifluoroacetic acid] | > 1000 | 100 to 1000 | < 100 | 
3 | Cc1cc(-c2nnc(C(=O)NCC(F)(F)F)n2-c2ccc(CN3CCN(CC4CCN(C(=O)C[C@@H]5N=C(c6ccc(Cl)cc6)c6c(sc(C)c6C)-n6c(C)nnc65)CC4)CC3)cc2)c(O)cc1O [Compound 15, 4-(4-((4-((1-(2-((6S)-4-(4-chlorophenyl)-2,3,9-trimethyl-6H-thieno[3,2-f][1,2,4]triazolo[4,3-a][1,4]diazepin-6-yl)acetyl)piperidin-4-yl)methyl)piperazin-1-yl)methyl)phenyl)-5-(2,4-dihydroxy-5-methylphenyl)-N-(2,2,2-trifluoroethyl)-4H-1,2,4-triazole-3-carboxamide, trifluoroacetic acid] | > 1000 | 100 to 1000 | < 100 | 
4 | Cc1sc2c(c1C)C(c1ccc(Cl)cc1)=N[C@@H](CC(=O)N1CCN(Cc3ccc4c(c3)CN(C(=O)c3ccc(O)cc3O)C4)CC1)c1nnc(C)n1-2 [Compound 143, (S)-2-(4-(4-chlorophenyl)-2,3,9-trimethyl-6H-thieno[3,2-f][1,2,4]triazolo[4,3-a][1,4]diazepin-6-yl)-1-(4-((2-(2,4-dihydroxybenzoyl)isoindolin-5-yl)methyl)piperazin-1-yl)ethan-1-one] | > 1000 | 100 to 1000 | > 1000 | 
5 | Cc1sc2c(c1C)C(c1ccc(Cl)cc1)=N[C@@H](CC(=O)N1CCC(CN3CCN(c4ccc(-n5c(O)nnc5-c5cc(C(C)C)c(O)cc5O)cc4)CC3)CC1)c1nnc(C)n1-2 [Compound 41, (S)-2-(4-(4-chlorophenyl)-2,3,9-trimethyl-6H-thieno[3,2-f][1,2,4]triazolo[4,3-a][1,4]diazepin-6-yl)-1-(4-((4-(4-(3-(2,4-dihydroxy-5-isopropylphenyl)-5-hydroxy-4H-1,2,4-triazol-4-yl)phenyl)piperazin-1-yl)methyl)piperidin-1-yl)ethanone] | 100 to 1000 | 100 to 1000 | < 100 | 
6 | Cc1sc2c(c1C)C(c1ccc(Cl)cc1)=N[C@@H](CC(=O)N1CCC(N3CCN(Cc4ccc(-n5c(O)nnc5-c5cc(C(C)C)c(O)cc5O)cc4)CC3)CC1)c1nnc(C)n1-2 [Compound 42, (S)-2-(4-(4-chlorophenyl)-2,3,9-trimethyl-6H-thieno[3,2-f][1,2,4]triazolo[4,3-a][1,4]diazepin-6-yl)-1-(4-(4-(4-(3-(2,4-dihydroxy-5-isopropylphenyl)-5-hydroxy-4H-1,2,4-triazol-4-yl)benzyl)piperazin-1-yl)piperidin-1-yl)ethan-1-one, trifluoroacetic acid] | 100 to 1000 | 100 to 1000 | < 100 | 
7 | Cc1sc2c(c1C)C(c1ccc(Cl)cc1)=NC(CC(=O)N[C@H](C)c1ccc(CN3CCN(Cc4ccc(-n5c(O)nnc5-c5cc(C(C)C)c(O)cc5O)cc4)CC3)cc1)c1nnc(C)n1-2 (stereo in doubt) [Compound 70, 2-((6S)-4-(4-chlorophenyl)-2,3,9-trimethyl-6H-thieno[3,2-f][1,2,4]triazolo[4,3-a][1,4]diazepin-6-yl)-N—((R)-1-(4-((4-(4-(3-(2,4-dihydroxy-5-isopropylphenyl)-5-hydroxy-4H-1,2,4-triazol-4-yl)benzyl)piperazin-1-yl)methyl)phenyl)ethyl)acetamide, trifluoroacetic acid] | 100 to 1000 | 100 to 1000 | < 100 | 
8 | Cc1sc2c(c1C)C(c1ccc(Cl)cc1)=N[C@@H](CC(=O)N1CCN(Cc3ccc4c(c3)CN(C(=O)c3cc(C(C)C)c(O)cc3O)C4)CC1)c1nnc(C)n1-2 [Compound 141, (S)-2-(4-(4-chlorophenyl)-2,3,9-trimethyl-6H-thieno[3,2-f][1,2,4]triazolo[4,3-a][1,4]diazepin-6-yl)-1-(4-((2-(2,4-dihydroxy-5-isopropylbenzoyl)isoindolin-5-yl)methyl)piperazin-1-yl)ethan-1-one] | 100 to 1000 | 100 to 1000 | 100 to 1000 | 
9 | (S)—N-(4′-((1-((S)-(2-(4-(4-chlorophenyl)-2,3,9-trimethyl-6H-thieno[3,2-f][1,2,4]triazolo[4,3-a][1,4]diazepin-6-yl)acetyl)glycyl)piperidin-4-yl)oxy)-2′-hydroxy-[1,1′-biphenyl]-4-yl)-3′,6-dimethoxy-[1,1′-biphenyl]-3-carboxamide [Compound 133] | > 1000 | > 1000 |  | > 1000
10 | CCc1cc(-c2nnc(C(N)=O)n2-c2ccc(CN3CCN(CC4CCN(C(=O)C[C@@H]5N=C(c6ccc(Cl)cc6)c6c(sc(C)c6C)-n6c(C)nnc65)CC4)CC3)cc2)c(O)cc1O [Compound 106, (S)-4-(4-((4-((1-(2-(4-(4-chlorophenyl)-2,3,9-trimethyl-6H-thieno[3,2-f][1,2,4]triazolo[4,3-a][1,4]diazepin-6-yl)acetyl)piperidin-4-yl)methyl)piperazin-1-yl)methyl)phenyl)-5-(5-ethyl-2,4-dihydroxyphenyl)-4H-1,2,4-triazole-3-carboxamide, trifluoroacetic acid] | 100 to 1000 | 100 to 1000 | < 100 | 
11 | Cc1sc2c(c1C)C(c1ccc(Cl)cc1)=N[C@@H](CC(=O)NCC(=O)NCc1ccc(-n3c(O)nnc3-c3cc(C(C)C)c(O)cc3O)cc1)c1nnc(C)n1-2 [Compound 57, 2-((6S)-4-(4-chlorophenyl)-2,3,9-trimethyl-6H-thieno[3,2-f][1,2,4]triazolo[4,3-a][1,4]diazepin-6-yl)-N-(2-((4-(3-(2,4-dihydroxy-5-isopropylphenyl)-5-hydroxy-4H-1,2,4-triazol-4-yl)benzyl)amino)-2-oxoethyl)acetamide] | 100 to 1000 | 100 to 1000 | 100 to 1000 | 
12 | Cc1sc2c(c1C)C(c1ccc(Cl)cc1)=N[C@@H](CCN(C)CCOCCOc1ccc(-n3c(O)nnc3-c3cc(C(C)C)c(O)cc3O)cc1)c1nnc(C)n1-2 [Compound 71, (S)-4-(4-(4-(2-(2-((2-(4-(4-chlorophenyl)-2,3,9-trimethyl-6H-thieno[3,2-f][1,2,4]triazolo[4,3-a][1,4]diazepin-6-yl)ethyl)(methyl)amino)ethoxy)ethoxy)phenyl)-5-hydroxy-4H-1,2,4-triazol-3-yl)-6-isopropylbenzene-1,3-diol, trifluoroacetic acid] | > 1000 | 100 to 1000 | 100 to 1000 | 
13 | Cc1sc2c(c1C)C(c1ccc(Cl)cc1)=N[C@@H](CC(=O)Nc1ccc(NC(=O)C3CCN(Cc4ccc(-n5c(O)nnc5-c5cc(C(C)C)c(O)cc5O)cc4)CC3)cc1)c1nnc(C)n1-2 [Compound 72, N-(4-(2-((6S)-4-(4-chlorophenyl)-2,3,9-trimethyl-6H-thieno[3,2-f][1,2,4]triazolo[4,3-a][1,4]diazepin-6-yl)acetamido)phenyl)-1-(4-(3-(2,4-dihydroxy-5-isopropylphenyl)-5-hydroxy-4H-1,2,4-triazol-4-yl)benzyl)piperidine-4-carboxamide, trifluoroacetic acid] | > 1000 | > 1000 | < 100 | 
14 | Cc1sc2c(c1C)C(c1ccc(Cl)cc1)=N[C@@H](CCNCCOCCOc1ccc(-n3c(O)nnc3-c3cc(C(C)C)c(O)cc3O)cc1)c1nnc(C)n1-2 [Compound 63, (S)-4-(4-(4-(2-(2-((2-(4-(4-chlorophenyl)-2,3,9-trimethyl-6H-thieno[3,2-f][1,2,4]triazolo[4,3-a][1,4]diazepin-6-yl)ethyl)amino)ethoxy)ethoxy)phenyl)-5-hydroxy-4H-1,2,4-triazol-3-yl)-6-isopropylbenzene-1,3-diol, trifluoroacetic acid] | 100 to 1000 | 100 to 1000 | 100 to 1000 | 
15 | Cc1nn(-c2ccc(C(N)=O)c(NCCOCCNC(=O)C[C@@H]3N=C(c4ccc(Cl)cc4)c4c(sc(C)c4C)-n4c(C)nnc43)c2)c2c1C(=O)CC(C)(C)C2 [Compound 20, 2-((2-(2-(2-((6S)-4-(4-chlorophenyl)-2,3,9-trimethyl-6H-thieno[3,2-f][1,2,4]triazolo[4,3-a][1,4]diazepin-6-yl)acetamido)ethoxy)ethyl)amino)-4-(3,6,6-trimethyl-4-oxo-4,5,6,7-tetrahydro-1H-indazol-1-yl)benzamide] | > 1000 | > 1000 | 100 to 1000 | 
16 | Cc1sc2c(c1C)C(c1ccc(Cl)cc1)=N[C@@H](CC(=O)N1CCC(CN3CCN(Cc4ccc(-n5c(C(N)=O)nnc5-c5cc(C(C)C)c(O)cc5O)cc4)CC3)CC1)c1nnc(C)n1-2 [Compound 109, (S)-4-(4-((4-((1-(2-(4-(4-chlorophenyl)-2,3,9-trimethyl-6H-thieno[3,2-f][1,2,4]triazolo[4,3-a][1,4]diazepin-6-yl)acetyl)piperidin-4-yl)methyl)piperazin-1-yl)methyl)phenyl)-5-(2,4-dihydroxy-5-isopropylphenyl)-4H-1,2,4-triazole-3-carboxamide, trifluoroacetic acid] | < 100 | 100 to 1000 | < 100 | 
